# Laboratory results taken from BindingDB's records for doi:10.1016/j.bmcl.2004.02.040 (Ewha Womans University, 2004).
# Molecular target: cGMP-specific 3',5'-cyclic phosphodiesterase PDE5 (Oryctolagus cuniculus)
# Assay: Inhibition of phosphodiesterase 5 of rabbit platelets
smiles,measurement,value
"CCCOc1ccc(S(=O)(=O)N2CCC(CCP(=O)(O)OCC)CC2)cc1-c1nc2c(CCC)nn(C)c2c(=O)[nH]1 [(2-{1-[3-(1-Methyl-7-oxo-3-propyl-6,7-dihydro-1H-pyrazolo[4,3-d]pyrimidin-5-yl)-4-propoxy-benzenesulfonyl]-piperidin-4-yl}-ethyl)-phosphonic acid monoethyl ester]",IC50,0.29 nM
